The target in test [1] is T1, PDE4B (human recombinant) (Homo sapiens, UniProt Q07343).
T1 construct: made in house; host or cells: Saccharomyces cerevisiae strain GL62 (PDE-deficient yeast)
The test can be described thus: Inhibition of PDE4B activity (FP and/or SPA assay). In kind it is biochemical. Conditions: generally FP assay; one reading or average of n readings; read-out: PDE4B pIC50 (generally in FP assay) (±about 0.5) (converted). From the text: Human recombinant PDE4B, in particular the 2B splice variant thereof (HSPDE4B2B), is disclosed in WO 94/20079 and also M. M. McLaughlin et al., “A low Km, rolipram-sensitive, cAMP-specific phosphodiesterase from human brain: cloning and expression of cDNA, biochemical characterisation of recombinant protein, and tissue distribution of mRNA”, J. Biol. Chem., 1993, 268, 6470-6476. For example, in Example 1 of WO 94/20079, human recombinant PDE4B is described as being expressed in the PDE-deficient yeast Saccharomyces cerevisiae strain GL62, e.g. after induction by addition of 150 uM CuSO4, and 100,000×g supernatant fractions of yeast cell lysates are described for use in the harvesting of PDE4B enzyme.
The ability of compounds to inhibit catalytic activity at PDE4B or 4D (human recombinant), PDE3 (from bovine aorta), PDE5 (human recombinant) or PDE6 (from bovine retina) can optionally be determined by Scintillation Proximity Assay (SPA) in a 96-well format.
Test compounds (as a solution in DMSO, suitably about 2 microlitre (ul) volume of DMSO solution) are preincubated at ambient temperature (room temperature, e.g. 19-23° C.) in Wallac Isoplates (code 1450-514) with PDE enzyme in 50 mM Tris-HCl buffer pH 7.5, 8.3 mM MgCl2, 1.7 mM EGTA, 0.05% (w/v) bovine serum albumin for 10-30 minutes (usually 30 minutes). The enzyme concentration is adjusted so that no more than 20% hydrolysis of the substrate defined below occurs in control wells without compound, during the incubation. For the PDE3, PDE4B and PDE4D assays, [5′,8-^3H]Adenosine 3′,5′-cyclic phosphate (Amersham Pharmacia Biotech, code TRK.559; or Amersham Biosciences UK Ltd, Pollards Wood, Chalfont St Giles, Buckinghamshire HP8 4SP, UK) is added to give 0.05uCi per well and about 10 nM final concentration. For the PDE5 and PDE6 assays, [8^−3H]Guanosine 3′,5′-cyclic phosphate (Amersham Pharmacia Biotech, code TRK.392) is added to give 0.05uCi per well and about 36 nM final concentration. Plates containing assay mixture, suitably approx. 100 ul volume of assay mixture, are mixed on an orbital shaker for 5 minutes and incubated at ambient temperature for 1 hour. Phosphodiesterase SPA beads (Amersham Pharmacia Biotech, code RPNQ 0150) are added (about 1 mg per well) to terminate the assay. Plates are sealed and shaken and allowed to stand at ambient temperature for 35 minutes to 1 hour (suitably 35 minutes) to allow the beads to settle. Bound radioactive product is measured using a WALLAC TRILUX 1450 Microbeta scintillation counter. For inhibition curves, 10 concentrations (e.g. 1.5 nM-30 uM) of each compound are assayed. Curves are analysed using ActivityBase and XLfit (ID Business Solutions Limited, 2 Ocean Court, Surrey Research Park, Guildford, Surrey GU2 7QB, United Kingdom) Results are expressed as pIC50 values.
The ability of compounds to inhibit catalytic activity at PDE4B (human recombinant) or PDE4D (human recombinant) can optionally be determined by IMAP Fluorescence Polarisation (FP) assay (IMAP Explorer kit, available from Molecular Devices Corporation, Sunnydale, Calif., USA; Molecular Devices code: R8062) in 384-well format.
The IMAP FP assay is able to measure PDE activity in an homogenous, non-radioactive assay format. The FP assay uses the ability of immobilised trivalent metal cations, coated onto nanoparticles (tiny beads), to bind the phosphate group of Fl-AMP that is produced on the hydrolysis of fluorescein-labelled (Fl) cyclic adenosine mono-phosphate (Fl-cAMP) to the non-cyclic Fl-AMP form. […] Binding of Fl-AMP product to the beads (coated with the immobilised trivalent cations) slows the rotation of the bound Fl-AMP and leads to an increase in the fluorescence polarisation ratio of parallel to perpendicular light. Inhibition of the PDE reduces/inhibits this signal increase. […]

Test [2] relates to TNF-α (TNF-alpha) production in human PBMC (peripheral blood mononuclear cells). Nature of the test: Inhibition of TNF-alpha production in human PBMC assay (MSD technology). The settings on record: Homo sapiens, PBMC, LPS stimulated, measured and/or mean of n measurements, read-out: PBMC pIC50 (MSD assay), inhibition of TNF-α production (converted). It is filed as cell-based. How it is done: A 96-well plate (96 MicroWell™ Plates Nunclon™Δ-High Flange Design, Fisher Scientific UK, Bishop Meadow Road, Loughborough LE 11 5 RG, Leicestershire, UK) is prepared by initially adding to column 1 ca. 10 mM of test compound dissolved in DMSO. […] The compound is further diluted with DMSO into columns 2 to 9 by 8 successive 3-fold dilutions using the Biomek® FX Laboratory Automation Workstation (Beckman Coulter, Inc., 4300 N. Harbor Boulevard, P.O. Box 3100, Fullerton, Calif. 92834-3100, USA). Column 10 is used as a DMSO negative control (High Signal, 0% response), whilst column 11, which contains 10 mM of the PDE4 inhibitor roflumilast, is used as a positive control (Low Signal, 100% response). About 1 μl (about 1 ul) of compound is transferred to the compound plate using the Biomek® FX.
PBMC cells (peripheral blood mononuclear cells) are prepared from heparinised human blood (using 1% v/v Heparin Sodium 10001 U/ml Endotoxin Free, Leo Laboratories Ltd., Cashel Road, Dublin 12. Ireland, Cat No: PL0043/0149) from normal volunteers using the Accuspin™ System-Histopaque®-1077 essentially (Sigma-Aldrich Company Ltd., The Old Brickyard New Rd, Gillingham, Dorset SP8 4XT, UK). About 20 ml of blood is overlaid onto 15 ml Histopaque® in Accuspin™ tubes. The tube is then centrifuged at about 800 g for ca. 20 minutes. The cells are collected from the interface, washed by centrifugation (ca. 1300 g, ca. 10 minutes) and resuspended in RPMI1640 medium (Low endotoxin RPMI1640 medium, Cat No: 31870-025, Invitrogen Corporation Invitrogen Ltd, 3 Fountain Drive, Inchinnan Business Park, Paisley PA4 9RF, UK) containing 10% foetal calf serum, 1% L-glutamine (Invitrogen Corporation, Cat No: 25030024) and 1% penicillin/streptomycin (Invitrogen Corporation, Cat No: 15140-122). Viable cells are counted by trypan blue staining and diluted to 1×10^6 viable cells/ml. About 50 μl (about 50 ul) of diluted cells and about 75 μl (about 75 ul) of LPS (ca. 1 ng/ml final; Sigma Cat No: L-6386) are added to the compound plate, which is then incubated at 37° C., 5% CO2, for 20 hours.
The supernatant is removed and the concentrations of TNF-α are determined by electrochemiluminescence assay using the Meso Scale Discovery (MSD) technology (Meso Scale Discovery, 9238 Gaither Road, Gaithersburg, Md. 20877, USA). See the “TNF-α (TNF-alpha) MSD Assay” described below for typical details.
For the following Examples, which are compounds of formula (I) or salts thereof, and generally when using the one of the above assays, or a generally similar or generally analogous assay, the measured and/or mean pIC50 values for inhibition of TNF-α (TNF-alpha) production in PBMCs are generally as follows (subject to a possibly-large variability or error):
Using the Biomek FX, 25 μl (25 ul) of MSD Human Serum Cytokine Assay Diluent (Meso Scale Discovery, 9238 Gaither Road, Gaithersburg, Md. 20877) is added to a 96-well High-Bind MSD plate pre-coated with anti-hTNF alpha capture antibody (MA6000) and then incubated for 24 hours at 4° C. to prevent non-specific binding. About 20 μl (ul) of supernatant from the PBMC plate or about 40 μl (ul) of supernatant from the whole blood (WB) plate are then transferred from columns 1-11 to columns 1-11 of the MSD plate using the Biomek FX. About 20 μl (ul) of TNF-α standard (Cat No. 210-TA; R&D Systems Inc., 614 McKinley Place NE, Minneapolis, Minn. 55413, USA) are added to column 12 of the MSD plate to generate a standard calibration curve (about 0 to 30000 pg/ml final).
For the Whole Blood assay, plates are washed after 2 hours shaking with a Skanwasher 300 version B (Skatron Instruments AS. PO Box 8, N-3401 Lier, Norway). About 40 μl (ul) of diluted sulfo-TAG antibody (ca. […] final) is added, the plates are shaken at room temperature for 1 hours, and the plates washed again as above. About 150 μl (ul) of Read Buffer T (2×) is added to the plates, which are then read on a MSD Sector 6000. […]

These results are taken from patent US20090325952A1, “PYRAZOLO[3,4-B]PYRIDINE COMPOUNDS, AND THEIR USE AS PDE4 INHIBITORS” (Glaxo Group Limited, priority 2006, published 2009).

T1 sequence (Q07343 1-564 isoform Q07343-2): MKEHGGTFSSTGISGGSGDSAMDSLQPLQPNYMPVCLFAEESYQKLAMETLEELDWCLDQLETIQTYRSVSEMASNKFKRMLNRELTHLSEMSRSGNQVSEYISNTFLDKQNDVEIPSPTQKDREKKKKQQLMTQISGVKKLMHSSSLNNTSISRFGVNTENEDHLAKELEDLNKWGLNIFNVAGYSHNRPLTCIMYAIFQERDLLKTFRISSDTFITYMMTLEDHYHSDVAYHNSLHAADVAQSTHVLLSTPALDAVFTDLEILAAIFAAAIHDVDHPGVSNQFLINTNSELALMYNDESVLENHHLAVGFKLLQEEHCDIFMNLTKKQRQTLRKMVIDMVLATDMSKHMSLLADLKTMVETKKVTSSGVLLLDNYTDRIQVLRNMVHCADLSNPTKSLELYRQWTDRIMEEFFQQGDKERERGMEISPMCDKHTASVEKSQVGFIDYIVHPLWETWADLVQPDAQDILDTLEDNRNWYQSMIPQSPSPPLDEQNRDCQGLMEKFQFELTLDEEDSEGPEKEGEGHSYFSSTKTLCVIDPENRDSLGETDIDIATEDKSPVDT

Take `CCc1nc2c(cnn2CC)c(NC2CCN(C(N)=O)CC2)c1CNC(=O)c1ccc(CCCCOCCCCN2CCOCC2)cc1` [Example 23, 4-({1,6-diethyl-5-[({[4-(4-{[4-(4-morpholinyl)butyl]oxy}butyl)phenyl]carbonyl}amino)methyl]-1H-pyrazolo[3,4-b]pyridin-4-yl}amino)-1-piperidinecarboxamide]: the IC50 in test [1] was ~0.0794 nM; in test [2] it was ~0.631 nM.
